# Reference: patent US7192906B2, “Substituted pyrazole derivatives, production process thereof, and herbicide compositions containing the derivatives” (SDS Biotech K.K., priority 2001, dated 2007)
# What was measured:
# Format in all cases: in vivo
# Chenopodium album [1] = assay: Test Example 1 upland field foliage treatment; conditions: Table 4, upland field foliage treatment, index 0-5
# Procedure: (§1) A plastic pot of 130 cm^2 was filled with upland soil. Subsequently, weed seeds of Setaria viridis, Digitaria adscendens, Chenopodium album and Stellaria media, and crop seeds of soybean (Glycine max) and wheat (Triticum aestivum), were sowed and covered with soil of about 1 cm thickness. On the 14th day after the sowing, the wettable powder prepared in Formulation Example 1 was diluted with water such that the amount of the active ingredient became 1 kg per hectare, and then uniformly applied to the plant leaf surfaces. On the 21st day after the application, observation and evaluation were carried out according to the criteria described below.
# (§2) Herbicidal activity was evaluated based on the following criteria.
# (§3) • 5: herbicidal effect of not less than 90%, or phytotoxicity of 90% or more • 4: herbicidal effect of not less than 70% and less than 90%, or phytotoxicity of 70% or more and less than 90% • 3: herbicidal effect of not less than 50% and less than 70%, or phytotoxicity of 50% or more and less than 70% • 2: herbicidal effect of not less than 30% and less than 50%, or phytotoxicity of 30% or more and less than 50% • 1: herbicidal effect of not less than 10% and less than 30%, or phytotoxicity of 10% or more and less than 30% • 0: herbicidal effect of not less than 0% and less than 10%, or phytotoxicity of 0% or more and less than 10%
# Digitaria adscendens [2] = assay: Test Example 1 upland field foliage treatment; conditions: Table 4, upland field foliage treatment, index 0-5
# Procedure: as §1, §2, §3
# Setaria viridis [3] = assay: Test Example 1 upland field foliage treatment; conditions: Table 4, upland field foliage treatment, index 0-5
# Procedure: as §1, §2, §3
# Stellaria media [4] = assay: Test Example 1 upland field foliage treatment; conditions: Table 4, upland field foliage treatment, index 0-5
# Procedure: as §1, §2, §3
# soybean (Glycine max) [5] = assay: Test Example 1 upland field foliage treatment, crop phytotoxicity; conditions: Table 4, upland field foliage treatment, index 0-5
# Procedure: as §1, §2, §3
# [6] = tested on: wheat (Triticum aestivum); assay: as above; conditions: Table 4, upland field foliage treatment, index 0-5
# Procedure: as §1, §2, §3
# Chenopodium album [7] = assay: Test Example 2 upland soil treatment; conditions: Table 5, upland soil treatment, index 0-5
# Procedure: as §1, with “next” for “14th”, “soil surface.” for “plant leaf surfaces.”, “aforesaid criteria.” for “criteria described below.”
# as §2, §3
# Digitaria adscendens [8] = assay: Test Example 2 upland soil treatment; conditions: Table 5, upland soil treatment, index 0-5
# Procedure: as §1, with “next” for “14th”, “soil surface.” for “plant leaf surfaces.”, “aforesaid criteria.” for “criteria described below.”
# as §2, §3
# Setaria viridis [9] = assay: Test Example 2 upland soil treatment; conditions: Table 5, upland soil treatment, index 0-5
# Procedure: as §1, with “next” for “14th”, “soil surface.” for “plant leaf surfaces.”, “aforesaid criteria.” for “criteria described below.”
# as §2, §3
# Stellaria media [10] = assay: Test Example 2 upland soil treatment; conditions: Table 5, upland soil treatment, index 0-5
# Procedure: as §1, with “next” for “14th”, “soil surface.” for “plant leaf surfaces.”, “aforesaid criteria.” for “criteria described below.”
# as §2, §3
# soybean (Glycine max) [11] = assay: Test Example 2 upland soil treatment, crop phytotoxicity; conditions: Table 5, upland soil treatment, index 0-5
# Procedure: as §1, with “next” for “14th”, “soil surface.” for “plant leaf surfaces.”, “aforesaid criteria.” for “criteria described below.”
# as §2, §3
# [12] = tested on: wheat (Triticum aestivum); assay: as above; conditions: Table 5, upland soil treatment, index 0-5
# Procedure: as §1, with “next” for “14th”, “soil surface.” for “plant leaf surfaces.”, “aforesaid criteria.” for “criteria described below.”
# as §2, §3
Structure (SMILES),Herbicidal activity CA: Chenopodium album (Chenopodium album [1]),Herbicidal activity DA: Digitaria adscendens (Digitaria adscendens [2]),Herbicidal activity SV: Setaria viridis (Setaria viridis [3]),Herbicidal activity SM: Stellaria media (Stellaria media [4]),Herbicidal activity (phytotoxicity) GM: Soybean (Glycine max) (soybean (Glycine max) [5]),Herbicidal activity (phytotoxicity) TA: Wheat (Triticum aestivum) [6],Herbicidal activity CA: Chenopodium album (Chenopodium album [7]),Herbicidal activity DA: Digitaria adscendens (Digitaria adscendens [8]),Herbicidal activity SV: Setaria viridis (Setaria viridis [9]),Herbicidal activity SM: Stellaria media (Stellaria media [10]),Herbicidal activity (phytotoxicity) GM: Soybean (Glycine max) (soybean (Glycine max) [11]),Herbicidal activity (phytotoxicity) TA: Wheat (Triticum aestivum) [12]
CNC(=O)C(Cn1ccc(-c2ccccc2)n1)=NOC [Compound 13],"4 (herbicidal effect of not less than 70% and less than 90%, or phytotoxicity of 70% or more and less than 90%)","4 (herbicidal effect of not less than 70% and less than 90%, or phytotoxicity of 70% or more and less than 90%)","3 (herbicidal effect of not less than 50% and less than 70%, or phytotoxicity of 50% or more and less than 70%)","4 (herbicidal effect of not less than 70% and less than 90%, or phytotoxicity of 70% or more and less than 90%)","0 (herbicidal effect of not less than 0% and less than 10%, or phytotoxicity of 0% or more and less than 10%)","0 (herbicidal effect of not less than 0% and less than 10%, or phytotoxicity of 0% or more and less than 10%)","5 (herbicidal effect of not less than 90%, or phytotoxicity of 90% or more)","4 (herbicidal effect of not less than 70% and less than 90%, or phytotoxicity of 70% or more and less than 90%)","4 (herbicidal effect of not less than 70% and less than 90%, or phytotoxicity of 70% or more and less than 90%)","5 (herbicidal effect of not less than 90%, or phytotoxicity of 90% or more)","0 (herbicidal effect of not less than 0% and less than 10%, or phytotoxicity of 0% or more and less than 10%)","0 (herbicidal effect of not less than 0% and less than 10%, or phytotoxicity of 0% or more and less than 10%)"
CCOC(CNC(=O)C(Cn1cc(C)c(-c2ccccc2)n1)=NOC)OCC [Compound 28],"4 (herbicidal effect of not less than 70% and less than 90%, or phytotoxicity of 70% or more and less than 90%)","3 (herbicidal effect of not less than 50% and less than 70%, or phytotoxicity of 50% or more and less than 70%)","3 (herbicidal effect of not less than 50% and less than 70%, or phytotoxicity of 50% or more and less than 70%)","3 (herbicidal effect of not less than 50% and less than 70%, or phytotoxicity of 50% or more and less than 70%)","0 (herbicidal effect of not less than 0% and less than 10%, or phytotoxicity of 0% or more and less than 10%)","0 (herbicidal effect of not less than 0% and less than 10%, or phytotoxicity of 0% or more and less than 10%)","4 (herbicidal effect of not less than 70% and less than 90%, or phytotoxicity of 70% or more and less than 90%)","4 (herbicidal effect of not less than 70% and less than 90%, or phytotoxicity of 70% or more and less than 90%)","3 (herbicidal effect of not less than 50% and less than 70%, or phytotoxicity of 50% or more and less than 70%)","3 (herbicidal effect of not less than 50% and less than 70%, or phytotoxicity of 50% or more and less than 70%)","0 (herbicidal effect of not less than 0% and less than 10%, or phytotoxicity of 0% or more and less than 10%)","0 (herbicidal effect of not less than 0% and less than 10%, or phytotoxicity of 0% or more and less than 10%)"
CNC(=O)C(Cn1cc(C)c(-c2cccc(C)c2)n1)=NOC [Compound 36],"5 (herbicidal effect of not less than 90%, or phytotoxicity of 90% or more)","5 (herbicidal effect of not less than 90%, or phytotoxicity of 90% or more)","4 (herbicidal effect of not less than 70% and less than 90%, or phytotoxicity of 70% or more and less than 90%)","4 (herbicidal effect of not less than 70% and less than 90%, or phytotoxicity of 70% or more and less than 90%)","0 (herbicidal effect of not less than 0% and less than 10%, or phytotoxicity of 0% or more and less than 10%)","0 (herbicidal effect of not less than 0% and less than 10%, or phytotoxicity of 0% or more and less than 10%)","5 (herbicidal effect of not less than 90%, or phytotoxicity of 90% or more)","4 (herbicidal effect of not less than 70% and less than 90%, or phytotoxicity of 70% or more and less than 90%)","4 (herbicidal effect of not less than 70% and less than 90%, or phytotoxicity of 70% or more and less than 90%)","5 (herbicidal effect of not less than 90%, or phytotoxicity of 90% or more)","1 (herbicidal effect of not less than 10% and less than 30%, or phytotoxicity of 10% or more and less than 30%)","0 (herbicidal effect of not less than 0% and less than 10%, or phytotoxicity of 0% or more and less than 10%)"
CNC(=O)C(Cn1cc(C)c(-c2cccc(Cl)c2)n1)=NOC [Compound 46],"5 (herbicidal effect of not less than 90%, or phytotoxicity of 90% or more)","5 (herbicidal effect of not less than 90%, or phytotoxicity of 90% or more)","5 (herbicidal effect of not less than 90%, or phytotoxicity of 90% or more)","5 (herbicidal effect of not less than 90%, or phytotoxicity of 90% or more)","0 (herbicidal effect of not less than 0% and less than 10%, or phytotoxicity of 0% or more and less than 10%)","0 (herbicidal effect of not less than 0% and less than 10%, or phytotoxicity of 0% or more and less than 10%)","5 (herbicidal effect of not less than 90%, or phytotoxicity of 90% or more)","5 (herbicidal effect of not less than 90%, or phytotoxicity of 90% or more)","5 (herbicidal effect of not less than 90%, or phytotoxicity of 90% or more)","5 (herbicidal effect of not less than 90%, or phytotoxicity of 90% or more)","1 (herbicidal effect of not less than 10% and less than 30%, or phytotoxicity of 10% or more and less than 30%)","0 (herbicidal effect of not less than 0% and less than 10%, or phytotoxicity of 0% or more and less than 10%)"
CNC(=O)C(Cn1cc(C)c(-c2ccc(OCc3ccccc3)cc2)n1)=NOC [Compound 54],"4 (herbicidal effect of not less than 70% and less than 90%, or phytotoxicity of 70% or more and less than 90%)","5 (herbicidal effect of not less than 90%, or phytotoxicity of 90% or more)","4 (herbicidal effect of not less than 70% and less than 90%, or phytotoxicity of 70% or more and less than 90%)","4 (herbicidal effect of not less than 70% and less than 90%, or phytotoxicity of 70% or more and less than 90%)","0 (herbicidal effect of not less than 0% and less than 10%, or phytotoxicity of 0% or more and less than 10%)","0 (herbicidal effect of not less than 0% and less than 10%, or phytotoxicity of 0% or more and less than 10%)","5 (herbicidal effect of not less than 90%, or phytotoxicity of 90% or more)","4 (herbicidal effect of not less than 70% and less than 90%, or phytotoxicity of 70% or more and less than 90%)","3 (herbicidal effect of not less than 50% and less than 70%, or phytotoxicity of 50% or more and less than 70%)","5 (herbicidal effect of not less than 90%, or phytotoxicity of 90% or more)","0 (herbicidal effect of not less than 0% and less than 10%, or phytotoxicity of 0% or more and less than 10%)","0 (herbicidal effect of not less than 0% and less than 10%, or phytotoxicity of 0% or more and less than 10%)"
